Assay results as given in article PMC8453901, “GLPG1205, a GPR84 Modulator: Safety, Pharmacokinetics, and Pharmacodynamics in Healthy Subjects” (Clinical Pharmacology in Drug Development, 2021).
Where two headings read alike, the source gives them in different places.

Experiments:
[1] = Study 1 SAD part: plasma pharmacokinetics after single oral doses; assay type: in vivo, human; details: for half-life / Tmax / Cmax / AUC(0-inf) / AUC / concentration at 24 h: male, human, plasma, oral; for AUC: read-out: AUC0‐24h; for concentration at 24 h: read-out: C24h
Experimental: GLPG1205 or matching placebo were administered as an oral nanosuspension in the morning in a fed condition as an outpatient. For both the single ascending doses (SADs) and multiple ascending doses (MADs) parts of the study, subjects attended a screening visit (21 to 2 days before first study drug administration) and a follow‐up visit (7 to 10 days after the last dose).
The SAD part of the study comprised 16 healthy male subjects in 2 alternating cohorts (A and B, n = 8 each). Cohort A received GLPG1205 10, 90, 400, and 800 mg or matching placebo, and cohort B received GLPG1205 30, 200, and 600 mg or matching placebo. Subjects were randomly assigned to receive GLPG1205 or matching placebo in a 3:1 ratio once at the beginning of the study. In addition, subjects in cohorts A and B were randomized to a treatment sequence. […] An interval of at least 3 days was enforced between 2 dose levels (between cohort A and B). Subjects were kept in‐house from the evening of day –1 to ≈26 hours after dosing (morning of day 2).
In the SAD part of study 1, blood samples (2 mL) for PK assessments were obtained before dosing and at multiple time points on the day of study drug administration (before dosing and 0.5, 1, 2, 4, 6, 8, and 12 hours after dosing) and at 24, 48, and 72 hours after dosing. The predose sample for the next dose level was also used in PK analysis (168 hours after dosing). […] In the MAD part of study 1, blood samples (2 mL) were obtained on days 1, 2, 4, 5, 6, 8, 10, 12, 14, 15, 16, 17, and 18 and at follow‐up (approximately 7 to 10 days after the last dose). These PK blood samples were taken after dosing (1, 2, 4, 6, 8, 12, and 24 hours) on day 1; before dosing on days 4, 6, 8, and 10; and after dosing (1, 2, 4, 6, 8, 12, 24, 72, and 96 hours) on day 14. The following additional PK blood samples were also taken: cohort C, before dosing on day 5; and cohorts D and E, before dosing on day 12. Urine samples were obtained from fractions collected over 6‐ or 12‐hour periods after dosing on days –1, 1, 2, 13, 14, and 15; samples obtained on days –1 and 13 were for cytochrome P450 (CYP) induction analysis only. In study 2, blood samples (2 mL) were obtained on days 1, 2, 5, 7, 10, 14, 15, 17, and 20 and at follow‐up (approximately 21 days after end of study medication administration). Blood samples were taken before dosing and at 1, 2, 4, 6, 8, 12, and 24 hours after drug administration on days 1 and 14 and before dosing on other sampling days.
Blood samples were immediately chilled (ice bath), and the plasma was separated by centrifugation (4°C for 10 minutes at ≈1500 g) within 30 minutes of blood collection.
GLPG1205 plasma concentrations were determined using a validated liquid chromatography with tandem mass spectrometry method. After a protein precipitation with methanol, a chromatographic separation was performed on a Kinetex C18 column (50×3.0 mm, 2.6 μm; Phenomenex, Torrance, California) set at 40°C by using a Nexera high‐performance liquid chromatography (HPLC) system (Shimadzu, Kyoto, Japan) or an Infinity HPLC system (Agilent Technologies, Diegem, Belgium) in isocratic elution mode. A QTRAP6500, QTRAP4000, or API4000 mass spectrometer (AB Sciex, Nieuwerkerk aan den Ijssel, The Netherlands) equipped with a TurboIonSpray probe operated in the multiple reaction monitoring in positive mode was used for quantification. The calibration curves in plasma were linear over the range of 1 to 1000 ng/mL with 1/x^2 as weighting factor. The limit of quantification of the assay in the plasma samples was set at 1 ng/mL.
PK calculations were performed using Phoenix WinNonlin 6.2 (Pharsight Corporation, Palo Alto, California). […] AUC0‐inf was calculated from the area under the plasma concentration‐time curve from time 0 until the time corresponding with the last observed quantifiable concentration + Ct/λz, where Ct was the last observed quantifiable concentration and λz the first‐order terminal rate constant. […]

CYP2C19 = tested on: CYP2C19; design: method as in data on file at Galapagos, 8, 9; details: 100 mg once daily, healthy male subjects; ref data on file at Galapagos, 8, 9; cited from earlier work
[2] = single 10 mg, arithmetic mean (CV%)
[3] = single 30 mg, arithmetic mean (CV%)
[4] = single 90 mg, arithmetic mean (CV%)
[5] = single 200 mg, arithmetic mean (CV%)
[6] = single 400 mg, arithmetic mean (CV%)
[7] = single 600 mg, arithmetic mean (CV%)
[8] = single 800 mg, arithmetic mean (CV%)

SMILES: O=c1nc(OC[C@@H]2COCCO2)cc2n1CCc1cc(C#CC3CC3)ccc1-2 [GLPG1205, 9‐cyclopropylethynyl‐2‐((S)‐1‐[1,4]dioxan‐2‐ylmethoxy)‐6,7‐dihydropyrimido[6,1‐a]isoquinolin‐4‐one]
- half-life ([1]; after single administration, 10 to 800 mg, read-out: arithmetic mean apparent terminal half-life (t1/2,λz) range): 30.1 to 140 h
- Tmax ([1]; after single administration, 10 to 800 mg, read-out: median tmax range): 2 to 4 h
- Cmax [1, 2]: 94.2 ng/mL
- AUC(0-inf) ([1]; single 10 mg, arithmetic mean (CV%), N = 3): 3310 ng·h/mL
- AUC [1, 2]: 1330 ng·h/mL
- concentration at 24 h [1, 2]: 39.8 ng/mL
- half-life ([1]; single 10 mg, arithmetic mean (CV%), read-out: t1/2,λz (converted)): 32.2 h
- Cmax [1, 3]: 284 ng/mL
- AUC(0-inf) ([1]; single 30 mg, arithmetic mean (CV%), N = 4): 11500 ng·h/mL
- half-life ([1]; single 30 mg, arithmetic mean (CV%), N = 5, read-out: t1/2,λz (converted)): 30.1 h
- AUC [1, 3]: 4470 ng·h/mL
- concentration at 24 h [1, 3]: 144 ng/mL
- Tmax ([1]; single 30 mg, median (minimum-maximum), read-out: tmax): 4 h
- Cmax [1, 4]: 890 ng/mL
- AUC(0-inf) ([1]; single 90 mg, arithmetic mean (CV%), N = 4): 52300 ng·h/mL
- AUC [1, 4]: 14300 ng·h/mL
- concentration at 24 h [1, 4]: 511 ng/mL
- half-life ([1]; single 90 mg, arithmetic mean (CV%), read-out: t1/2,λz (converted)): 57.7 h
- Tmax ([1]; single 90 mg, median (minimum-maximum), read-out: tmax): 4 h
- Cmax [1, 5]: 2200 ng/mL
- AUC(0-inf) ([1]; single 200 mg, arithmetic mean (CV%), N = 4): 120000 ng·h/mL
- half-life ([1]; single 200 mg, arithmetic mean (CV%), N = 5, read-out: t1/2,λz (converted)): 54.3 h
- AUC [1, 5]: 35800 ng·h/mL
- concentration at 24 h [1, 5]: 1260 ng/mL
- Tmax ([1]; single 200 mg, median (minimum-maximum), read-out: tmax): 3 h
- Cmax [1, 6]: 3390 ng/mL
- AUC [1, 6]: 58000 ng·h/mL
- concentration at 24 h [1, 6]: 2150 ng/mL
- half-life ([1]; single 400 mg, arithmetic mean (CV%), read-out: t1/2,λz (converted)): 92.4 h
- AUC(0-inf) ([1]; single 400 mg, arithmetic mean, N = 2): 224000 ng·h/mL
- Tmax ([1]; single 400 mg, median (minimum-maximum), read-out: tmax): 4 h
- Cmax [1, 7]: 5530 ng/mL
- half-life ([1]; single 600 mg, arithmetic mean (CV%), N = 3, read-out: t1/2,λz (converted)): 75 h
- AUC [1, 7]: 94000 ng·h/mL
- concentration at 24 h [1, 7]: 3410 ng/mL
- Tmax ([1]; single 600 mg, median (minimum-maximum), read-out: tmax): 4 h
- Cmax [1, 8]: 7500 ng/mL
- AUC [1, 8]: 130000 ng·h/mL
- concentration at 24 h [1, 8]: 5000 ng/mL
- half-life ([1]; single 800 mg, arithmetic mean, N = 2, read-out: t1/2,λz (converted)): 140 h
- Tmax ([1]; single 800 mg, median (minimum-maximum), read-out: tmax): 4 h
- dose-proportionality of exposure ([1]; single doses between 10 and 800 mg): did not markedly deviate from dose‐proportionality
- effect on exposure of CYP2C19 (CYP2C19): did not affect the exposure
